Laboratory results as given in US10670605B2, “Cysteine reactive probes and uses thereof” (The Scripps Research Institute, priority 2015, dated 2020).
Entries after “also recorded” stand apart in the source; their conditions may differ.

Legend:
Assay in all cases: Competitive isoTOP-ABPP in situ (fragment-treated cells)
[1] = target: cysteines in MDA-MB-231 and Ramos cells (Homo sapiens, UniProt Q15003); format: cell-based
[2] = target: cysteines in MDA-MB-231 and Ramos cells (Homo sapiens, UniProt Q9ULA0); format: cell-based; conditions: 200 μM, insitu
[3] = target: T1, cysteines in MDA-MB-231 and Ramos cells (Homo sapiens, UniProt Q7Z5K2); format: cell-based
T1 sequence (Q7Z5K2 1-1190): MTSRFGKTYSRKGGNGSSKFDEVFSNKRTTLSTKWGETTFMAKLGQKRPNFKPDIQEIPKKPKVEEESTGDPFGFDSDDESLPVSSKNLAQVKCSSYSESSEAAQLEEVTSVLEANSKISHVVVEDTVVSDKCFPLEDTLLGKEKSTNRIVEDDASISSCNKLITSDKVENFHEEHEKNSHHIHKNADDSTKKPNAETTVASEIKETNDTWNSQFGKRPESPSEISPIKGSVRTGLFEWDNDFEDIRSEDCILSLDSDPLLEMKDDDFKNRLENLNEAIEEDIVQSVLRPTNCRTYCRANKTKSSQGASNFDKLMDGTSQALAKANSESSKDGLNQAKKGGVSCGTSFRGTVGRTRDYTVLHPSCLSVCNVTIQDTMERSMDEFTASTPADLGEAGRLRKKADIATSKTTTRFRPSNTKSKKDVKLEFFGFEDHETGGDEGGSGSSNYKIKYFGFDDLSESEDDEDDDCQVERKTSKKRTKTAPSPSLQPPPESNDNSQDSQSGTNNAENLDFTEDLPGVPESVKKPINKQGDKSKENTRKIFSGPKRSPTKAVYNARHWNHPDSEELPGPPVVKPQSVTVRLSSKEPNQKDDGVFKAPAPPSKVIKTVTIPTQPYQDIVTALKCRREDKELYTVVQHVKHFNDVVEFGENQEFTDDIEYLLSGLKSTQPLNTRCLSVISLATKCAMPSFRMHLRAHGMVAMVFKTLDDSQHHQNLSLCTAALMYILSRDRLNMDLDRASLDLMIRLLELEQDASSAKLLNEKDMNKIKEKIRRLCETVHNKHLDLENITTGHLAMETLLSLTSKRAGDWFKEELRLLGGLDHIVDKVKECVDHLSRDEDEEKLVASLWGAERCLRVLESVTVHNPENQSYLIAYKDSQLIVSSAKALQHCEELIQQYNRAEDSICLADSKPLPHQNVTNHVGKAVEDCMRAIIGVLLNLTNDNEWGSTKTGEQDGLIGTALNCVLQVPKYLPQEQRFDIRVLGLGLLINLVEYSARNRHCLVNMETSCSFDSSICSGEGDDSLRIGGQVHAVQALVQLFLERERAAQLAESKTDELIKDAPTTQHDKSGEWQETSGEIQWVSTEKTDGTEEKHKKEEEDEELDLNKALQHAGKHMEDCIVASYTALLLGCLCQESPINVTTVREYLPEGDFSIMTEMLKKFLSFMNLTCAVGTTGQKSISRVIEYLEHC

[4] = target: T2, cysteines in MDA-MB-231 and Ramos cells (Homo sapiens, UniProt Q9NXJ5); format: cell-based; conditions: 200 μM, insitu
T2 sequence (Q9NXJ5 1-209): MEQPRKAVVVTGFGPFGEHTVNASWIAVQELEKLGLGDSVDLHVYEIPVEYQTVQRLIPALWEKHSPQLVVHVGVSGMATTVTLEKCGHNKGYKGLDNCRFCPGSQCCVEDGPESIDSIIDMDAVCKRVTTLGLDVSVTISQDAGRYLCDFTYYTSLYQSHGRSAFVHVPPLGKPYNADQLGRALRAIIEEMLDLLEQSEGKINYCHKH

[5] = target: T3, cysteines in MDA-MB-231 and Ramos cells (Homo sapiens, UniProt Q9UPT9); format: cell-based
T3 sequence (Q9UPT9 1-525): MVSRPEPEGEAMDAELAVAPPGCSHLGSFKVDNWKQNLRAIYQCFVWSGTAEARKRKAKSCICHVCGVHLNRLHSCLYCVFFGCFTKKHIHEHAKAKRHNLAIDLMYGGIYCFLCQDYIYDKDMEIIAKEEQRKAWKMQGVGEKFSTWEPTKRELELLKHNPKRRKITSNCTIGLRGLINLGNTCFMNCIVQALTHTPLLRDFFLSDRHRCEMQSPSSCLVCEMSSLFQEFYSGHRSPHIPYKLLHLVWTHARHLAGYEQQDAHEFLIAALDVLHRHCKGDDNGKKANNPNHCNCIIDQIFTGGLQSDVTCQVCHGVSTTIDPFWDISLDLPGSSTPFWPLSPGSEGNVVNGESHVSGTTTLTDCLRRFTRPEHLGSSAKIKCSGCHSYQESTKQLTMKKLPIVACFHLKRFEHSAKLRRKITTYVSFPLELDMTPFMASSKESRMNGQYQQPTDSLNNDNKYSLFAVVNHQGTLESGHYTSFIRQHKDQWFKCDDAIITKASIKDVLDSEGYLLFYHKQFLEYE

[6] = target: cysteines in MDA-MB-231 and Ramos cells (Homo sapiens, UniProt O00541); format: cell-based
Sequence of cysteines in MDA-MB-231 and Ramos cells (Homo sapiens, UniProt O00541) (O00541 whole entry, looked up): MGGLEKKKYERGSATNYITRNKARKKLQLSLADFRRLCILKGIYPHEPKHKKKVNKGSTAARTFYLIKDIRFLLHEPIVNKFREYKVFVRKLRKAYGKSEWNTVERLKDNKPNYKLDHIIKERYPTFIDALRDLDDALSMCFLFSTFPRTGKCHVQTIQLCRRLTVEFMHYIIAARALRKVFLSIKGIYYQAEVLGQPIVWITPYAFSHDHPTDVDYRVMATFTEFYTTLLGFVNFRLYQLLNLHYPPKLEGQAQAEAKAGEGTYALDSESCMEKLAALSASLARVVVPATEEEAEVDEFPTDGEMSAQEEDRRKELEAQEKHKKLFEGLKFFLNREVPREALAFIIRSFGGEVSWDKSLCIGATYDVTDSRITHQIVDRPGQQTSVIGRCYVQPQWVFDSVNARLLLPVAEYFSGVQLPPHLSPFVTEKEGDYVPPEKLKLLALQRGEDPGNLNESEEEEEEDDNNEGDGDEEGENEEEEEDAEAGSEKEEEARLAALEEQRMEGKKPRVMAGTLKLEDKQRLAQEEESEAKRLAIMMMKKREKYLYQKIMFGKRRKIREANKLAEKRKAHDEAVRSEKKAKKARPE

[7] = tested on: cysteines in MDA-MB-231 and Ramos cells; format: cell-based, human
[8] = target: T4, cysteines in MDA-MB-231 and Ramos cells (Homo sapiens, UniProt Q8N5L8); format: cell-based; conditions: 200 μM, insitu, 231
T4 sequence (Q8N5L8 1-163): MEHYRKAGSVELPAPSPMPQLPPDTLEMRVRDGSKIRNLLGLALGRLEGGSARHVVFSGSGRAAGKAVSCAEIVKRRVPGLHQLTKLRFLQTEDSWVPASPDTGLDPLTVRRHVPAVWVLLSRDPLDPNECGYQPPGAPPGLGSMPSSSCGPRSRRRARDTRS

[9] = target: T5, cysteines in MDA-MB-231 and Ramos cells (Homo sapiens, UniProt Q9BR61); format: cell-based; conditions: 200 μM, insitu
T5 sequence (Q9BR61 1-282): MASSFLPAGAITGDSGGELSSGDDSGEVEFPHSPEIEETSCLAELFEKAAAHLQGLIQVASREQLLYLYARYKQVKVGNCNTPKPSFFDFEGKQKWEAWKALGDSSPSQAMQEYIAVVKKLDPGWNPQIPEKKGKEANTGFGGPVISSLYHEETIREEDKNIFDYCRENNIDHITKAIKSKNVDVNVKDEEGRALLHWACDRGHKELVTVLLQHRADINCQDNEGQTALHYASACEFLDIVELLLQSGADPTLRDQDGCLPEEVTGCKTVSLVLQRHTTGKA

Sequence of cysteines in MDA-MB-231 and Ramos cells (Homo sapiens, UniProt Q15003) (Q15003 whole entry): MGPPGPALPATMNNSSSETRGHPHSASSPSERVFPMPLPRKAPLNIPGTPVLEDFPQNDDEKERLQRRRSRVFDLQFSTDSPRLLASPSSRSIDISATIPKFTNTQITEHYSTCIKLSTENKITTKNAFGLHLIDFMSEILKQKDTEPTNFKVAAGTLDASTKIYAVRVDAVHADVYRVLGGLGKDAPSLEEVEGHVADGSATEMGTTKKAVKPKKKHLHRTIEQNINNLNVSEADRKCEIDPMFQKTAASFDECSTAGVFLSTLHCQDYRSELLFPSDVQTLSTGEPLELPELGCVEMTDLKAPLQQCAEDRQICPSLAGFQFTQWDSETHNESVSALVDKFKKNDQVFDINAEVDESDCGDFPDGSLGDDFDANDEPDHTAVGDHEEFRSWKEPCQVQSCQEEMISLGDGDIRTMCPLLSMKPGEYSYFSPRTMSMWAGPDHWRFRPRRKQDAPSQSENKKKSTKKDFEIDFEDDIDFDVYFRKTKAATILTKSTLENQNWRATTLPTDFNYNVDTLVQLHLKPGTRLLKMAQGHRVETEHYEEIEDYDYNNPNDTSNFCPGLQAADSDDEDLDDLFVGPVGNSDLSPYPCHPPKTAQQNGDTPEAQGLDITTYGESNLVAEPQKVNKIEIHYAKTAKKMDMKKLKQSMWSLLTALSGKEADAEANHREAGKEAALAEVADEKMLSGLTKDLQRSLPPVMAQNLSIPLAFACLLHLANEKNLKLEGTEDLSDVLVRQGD

COc1ccc2c(c1)CCCN2C(=O)CCl [compound 2]
isoTOP-ABPP reactivity Q15003_C418 NCAPH ([1]; 200 μM, insitu, 231): 20.0

COc1ccc(C2CC(c3cccs3)=NN2C(=O)CCl)cc1 (stereo not drawn) [compound 4]
isoTOP-ABPP reactivity Q15003_C418 NCAPH ([1]; 100 μM in situ 231): 20.0

O=C(CCl)N1CCC(Cc2ccccc2)CC1 [compound 9]
isoTOP-ABPP reactivity Q9ULA0_C144 DNPEP [2]; 231: 2.1

O=C(CCl)N1CCN(S(=O)(=O)c2ccccc2F)CC1 [compound 10]
isoTOP-ABPP ratio, cysteine Q7Z5K2_C160 ([3]; 200 μM, insitu, 231): 20.0
isoTOP-ABPP ratio, cysteine Q9NXJ5_C149 ([4]; ramos): 11.0
isoTOP-ABPP ratio, cysteine Q9ULA0_C144 [2]; 231: 5.2
isoTOP-ABPP ratio, cysteine Q9UPT9_C171 ([5]; 200 μM, insitu, ramos): 9.3

Cn1cc(S(=O)(=O)N2CCOCC2)cc1C(=O)NC(=O)CCl [compound 11]
isoTOP-ABPP ratio, cysteine O00541_C272 ([6]; 100 μM in situ 231): 1.0
isoTOP-ABPP ratio, cysteine Q15003_C418 ([1]; 100 μM in situ 231): 1 .6
isoTOP-ABPP ratio, cysteine Q7Z5K2_C160 ([3]; 100 μM in situ 231): 1.0
isoTOP-ABPP ratio, cysteine Q9UPT9_C171 ([5]; 100 μM in situ 231): 0.8
isoTOP-ABPP ratio, cysteine E2QRD5_C183 ([7]; 100 μM in situ 231): 0.9
proteomic reactivity in situ (in words) ([7]; in situ, 2 h, versus in vitro): notably devoid of activity in situ; also recorded: notably lower reactivity in situ versus in vitro

O=C(CCl)NC(=O)NC12CC3CC(CC(C3)C1)C2 [compound 12]
isoTOP-ABPP ratio, cysteine Q9NXJ5_C149 [4]; 231: 3.9

O=C(CCl)NCCc1c[nH]c2ccccc12 [compound 13]
isoTOP-ABPP ratio, cysteine O00541_C272 ([6]; 200 μM, insitu, 231): 1.4
isoTOP-ABPP ratio, cysteine Q8N5L8_C131 [8]: 1.2
isoTOP-ABPP ratio, cysteine Q9BR61_C267 [9]; 231: 1.1
isoTOP-ABPP ratio, cysteine Q9NXJ5_C149 ([4]; ramos): 20.0
isoTOP-ABPP ratio, cysteine Q9UPT9_C171 ([5]; 200 μM, insitu, ramos): 3.2

O=C(CCl)NC12CC3CC(CC(C3)C1)C2 [compound 21]
isoTOP-ABPP ratio, cysteine Q8N5L8_C131 [8]: 0.8
isoTOP-ABPP ratio, cysteine E2QRD5_C183 ([7]; 200 μM, insitu, 231): 0.8

O=C(CCl)N1CCN(CC(=O)N2CCOCC2)CC1 [compound 29]
isoTOP-ABPP ratio Q15003_C418 ([1]; 200 μM, insitu, ramos): 1.4
isoTOP-ABPP ratio Q7Z5K2_C160 ([3]; 200 μM, insitu, ramos): 0.7
isoTOP-ABPP ratio Q9BR61_C267 ([9]; ramos): 2.5
isoTOP-ABPP ratio Q9ULA0_C144 ([2]; ramos): 1.3

C=CC(=O)N(Cc1cccnc1)c1cc(C(F)(F)F)cc(C(F)(F)F)c1 [compound 31]
isoTOP-ABPP ratio E2QRD5_C183 ([7]; 200 μM, insitu, 231): 0.8

Cc1ccc(C=C(C#N)C(=O)NCCN2CCOCC2)cc1 [compound 41]
isoTOP-ABPP ratio, O00541_C272 ([6]; 200 μM, insitu, 231): 0.9
isoTOP-ABPP ratio Q7Z5K2_C160 ([3]; 200 μM, insitu, 231): 1.0
isoTOP-ABPP ratio Q9BR61_C267 [9]; 231: 0.5
isoTOP-ABPP ratio Q9ULA0_C144 [2]; 231: 0.8
isoTOP-ABPP ratio E2QRD5_C183 ([7]; 200 μM, insitu, 231): 0.5

CC1CCc2ccccc2N1C(=O)CCl (stereo not drawn) [compound 45]
isoTOP-ABPP ratio Q15003_C418 ([1]; 200 μM, insitu, 231): 20.0
isoTOP-ABPP ratio Q8N5L8_C131 [8]: 7.3
